# Assay: Oral bioavailability after oral dosing in rat
# Settings: in vivo, Sprague Dawley rats, IV 1 mg/kg, PO 5 mg/kg, IV vehicle 5% DMSO + 30% PEG400 + 65% water, PO vehicle 0.5% methyl cellulose in water
# Method: Oral bioavailability of the compounds was determined in Sprague Dawley rats. The table below summarizes the results. Each compound was dosed intravenously (IV) at 1 mg/kg and orally (PO) 5 mg/kg using the respective vehicles listed below. The compounds display low (<10%) oral bioavailability (F %).
row,bioavailability,Structure (SMILES)
1,4.6%,"CCOc1cc(-c2ccc(F)cc2)c(C2CC2)cc1CN1CCC2(CC1)CN(c1ccc(S(=O)(=O)O)cc1)C(=O)O2 [Compound 1, 4-(8-((2-cyclopropyl-5-ethoxy-4′-fluoro-[1,1′-biphenyl]-4-yl)methyl)-2-oxo-1-oxa-3,8-diazaspiro[4.5]decan-3-yl)benzenesulfonic acid]"
2,2.1%,"CCOc1cc(-c2ccc(F)cc2)c(C2CC2)cc1CN1CCC2(CC1)CC(=O)N(c1ccc(S(=O)(=O)O)cc1)C2 [Compound 2, 4-(8-((2-cyclopropyl-5-ethoxy-4′-fluoro-[1,1′-biphenyl]-4-yl)methyl)-3-oxo-2,8-diazaspiro[4.5]decan-2-yl)benzenesulfonic acid]"
3,1.2%,"CCOc1cc(-c2ccc(F)cn2)c(C2CC2)cc1CN1CCC2(CC1)CN(c1ccc(S(=O)(=O)O)cc1)C(=O)O2 [Compound 3, 4-(8-(5-cyclopropyl-2-ethoxy-4-(5-fluoropyridin-2-yl)benzyl)-2-oxo-1-oxa-3,8-diazaspiro[4.5]decan-3-yl)benzenesulfonic acid]"

# Reference: patent US20230041621A1, “SSTR5 ANTAGONISTS” (Kallyope, Inc., priority 2019, published 2023)
